Laboratory results published in publication PMC12239253 (BMC Complementary Medicine and Therapies, 2025).

Target: glycoprotein B (gB) (Human alphaherpesvirus 1 strain 17, UniProt P10211)
Test: surface plasmon resonance
Format: binding

Kd: 4.26 µM
SMILES: C=C1CC/C=C(\C)CC[C@@H]2[C@@H]1CC2(C)C [BCP, β-caryophyllene]
